Values quoted from earlier work in patent US20190210972A1, “METHODS OF RESOLVING RACEMIC MIXTURE TO OBTAIN (-)-HUPERZINE A” (AMPHASTAR NANJING PHARMACEUTICALS INC., priority 2014, published 2019).

Tested on: patients with Alzheimer's disease
Conditions: double-blind, placebo-controlled

For `C/C=C1\C2C=C(C)C[C@]1(N)c1ccc(=O)[nH]c1C2` (single isomer, unassigned; (-)) [(−)-Huperzine A], which “cognitive function and quality of life of trial participants” value is on record?
The value was “Significant improvements”.
